Experimental findings from patent US11590158B2, “Pharmaceutical compositions of lipoic acid choline ester salts and methods of treatment using same” (Novartis AG, priority 2020, dated 2023) are described below.

Entries after “also recorded” stand apart in the source; their conditions may differ. Counter-ions that a name gives are not always drawn. Like-named read-outs stand apart in the source and are kept apart here. A value given as a limit tells only on which side of the number the result lay.

A short description of series [1]: Hygroscopicity (exposure to RH, DVS). The note with it: for Hygroscopicity / Hygroscopicity, water uptake: DVS; for Hygroscopicity: >70% RH; for Hygroscopicity, water uptake: until 70% RH. The format is physicochemical.
The nature of series [2]: Hygroscopicity (exposure to RH, DVS). The format is physicochemical. The following applies: for Hygroscopicity: solid salt, ambient conditions; for Hygroscopicity upon exposure: 58% RH for one day. The source says: It is deliquescent upon exposure to 58% RH for one day. In DVS measurement, LACE chloride absorbs 18.6% moisture from 0% RH to 50% RH. The DVS isotherm is irreversible. It is amorphous at ambient but crystalline under 0% RH by Cryo-XRPD.

The nature of a further series: Photostability. Type of series: physicochemical.
Series [3] in a line: Stability in organic solutions or suspensions. Type of series: physicochemical. The note with it: 40° C. for 1 week.
Series [4] is described as follows: Equilibration of LACE chloride in solvents (solubility test). The format is physicochemical. The following applies: 100 mg in 1 mL, 25° C. for 7 days. The source says: The mixture was equilibrated for 7 days, with visual observations at days 1, 2, and 7. If a slurry resulted, it was filtered and clear solutions were either cooled or evaporated.
Series [5] in a line: Stability in aqueous solutions or suspensions. Type of series: physicochemical. The source says: At pH 4.7 buffer solution about 4% degradation is observed.
The conditions of series [6]: 1 week.
Protocol: (§1) LACE salts were dissolved in each of the following excipients: 0.01% benzalkonium chloride, 20 mM acetate buffer, 20 mM citrate buffer, 1% Na-carboxymethyl cellulose, 1% hydroxypropylmethyl cellulose and 0.01% Na-ethylene diamine tetraacetic acid.
The mark [7] stands for this setting: 5% solutions in aqueous excipients (0.01% BAC, 20 mM acetate, 20 mM citrate, 1% Na-CMC, 1% HPMC, 0.01% Na-EDTA), 40° C. for 2 weeks.
[8] abbreviates: same excipients, 40° C. for 2 weeks.
Setting [9] is: same excipients, 40° C./75% RH for 2 weeks.
The mark [10] stands for this setting: other solvents (EtOAC, acetone, IPA and THF).
Where [11] appears, read: pH 4.7 buffer solution, 40° C. for 1 week.

Protocol for Excipient compatibility: as §1

In the case of `C[N+](C)(C)CCOC(=O)CCCCC1CCSS1.Cc1ccc(S(=O)(=O)[O-])cc1` (centres unmarked) [Form A, lipoic acid choline ester tosylate], in series [1], the Hygroscopicity entry was “deliquescent >70% RH” and the “Hygroscopicity, water uptake” value worked out at 0.64% water uptake until.
On to `C[N+](C)(C)CCOC(=O)CCCCC1CCSS1.Cc1ccc(S(=O)(=O)[O-])cc1` (centres unmarked) [Form B, lipoic acid choline ester tosylate], for which, in [1], the Hygroscopicity result is listed as “deliquescent >70% RH” and the “Hygroscopicity, water uptake” value is reported as 0.55% water uptake until.
Take `C[N+](C)(C)CCOC(=O)CCCCC1CCSS1.[Br-]` (centres unmarked) [LACE bromide]: in [2], the Hygroscopicity result was “hygroscopic”.
Turning to `C[N+](C)(C)CCOC(=O)CCCC[C@@H]1CCSS1.[Cl-]` [LACE-Cl, lipoic acid choline ester chloride], the degradation result is listed as “approximately 7%” in the series “Solid state stability” (40° C. 75% RH for 1 week); “approximately 7%” in “Solid state stability” (40° C. for 1 week); “about 5%” in “Excipient compatibility” (setting [7]); 2-3% in “Excipient compatibility” (in Na-CMC, alanine and histidine, 25° C. for 1 week); “higher degradation” in “Excipient compatibility” (setting [8]); “high-severe degradation” in “Excipient compatibility” (setting [9]). Moreover, the degradation in “Excipient compatibility” (with HPMC, 25° C. for 1 week) is approximately 8%; in “Excipient compatibility” (with HPβCD, 25° C. for 1 week) it was 3.35%; in series [3] (methanol and ethanol) it was “complete degradation”; in series [3] (setting [10]), “severe degradation”; in series [5] (setting [11]), “about 4%”. Also, the physical form result in “Solid state stability” (40° C. 75% RH for 1 week) is given as “becomes sticky mass”. The “solid state stability / physical form” value in “Solid state stability” (40° C. for 1 week) is “becomes sticky mass”. The “behaviour on handling / exposure at ambient conditions” value (shortened to “behaviour on handling / exposure”) in the series “Solid state stability” is “not suitable for handling under normal conditions”. Besides, the “photostability, degradation” value in the series “Photostability” (amber vial) is approximately 5%; in the series “Photostability” (clear vial), “severe degradation and color change”. Also, the “photostability, physical form” value in the series “Photostability” (amber vial) and in the series “Photostability” (clear vial) was “becomes sticky” each time. The “Comments (equilibration in solvent)” value in series [4] (2-Me-THF) is on record as “sticky solid”; in [4] (2 Methyl 2 butanone), “Clear solution after 7 days”; in [4] (ACN) it was “Clear solution after 7 days”; in series [4] (Acetic acid), “almost dissolved”; in series [4] (Acetone) it was “initial suspension, with particles stuck on wall”; in series [4] (Anisole), “sticky solid”. The “Comments (equilibration in solvent)” value in series [4] (Benzyl alcohol) is “Clear solution after 7 days”; in series [4] (Chloroform), “clear solution that yielded an oil after”; in series [4] (Cumene), “undissolved solid after 7 days”; in series [4] (Cyclohexane), “undissolved solid after 7 days”; in [4] (DCM) it was “Clear solution after 7 days”; in series [4] (Diethyl ether), “undissolved solid after 7 days”. In addition, the “Comments (equilibration in solvent)” value in [4] (Dioxane) was “initial suspension, with particles stuck on wall”; in series [4] (EtOAc), “suspension”; in [4] (EtOH) it was “Clear solution after 7 days”; in [4] (Ethyl formate) it was “suspension”; in series [4] (IPAc), “undissolved solid after 7 days”; in series [4] (MEK) it was “initial suspension, with particles stuck on wall”. The “Comments (equilibration in solvent)” value is recorded as “initial suspension, with particles stuck on wall” in series [4] (MTBE); “Clear solution after 7 days” in series [4] (MeOH); “Clear solution after 7 days” in series [4] (Nitromethane); “undissolved solid after 7 days” in series [4] (Petroleum ether); “Clear solution after 7 days” in series [4] (Propylene glycol); “almost dissolved” in [4] (Pyridine). Further, the “Comments (equilibration in solvent)” value is given as “initial suspension turning sticky” in [4] (THF), “sticky solid” in [4] (Toluene), “Clear solution after 7 days” in series [4] (Water) and “undissolved solid after 7 days” in [4] (Xylene). In addition, the Hygroscopicity upon exposure result in [2] is reported as “deliquescent”. Besides, the “moisture absorbed in DVS” value in [2] (from 0% RH to 50% RH) was determined as 18.6%. Further, the Hygroscopicity result in series [2] is “highly hygroscopic”.
Consider `C[N+](C)(C)CCOC(=O)CCCCC1CCSS1.[I-]` (centres unmarked) [LACE-I, lipoic acid choline ester iodide], for which the physical form result in the series “Solid state stability” (40° C. 75% RH for 1 week) is on record as “form remains the same”. For the same compound, the “solid state stability / physical form” value in the series “Solid state stability” (40° C. for 1 week) is on record as “stable”. In addition, in the series “Solid state stability”, the “behaviour on handling / exposure” value was “changes color; also recorded: discoloration and possibly slow degradation”. Further, the photostability entry in “Photostability” (amber vial) is on record as “stable”. The “photostability, physical form” value was “remains the same” in the series “Photostability” (amber vial) and “remains unchanged” in “Photostability” (clear vial). In addition, in the series “Photostability” (clear vial), the “photostability, degradation” value was “severe degradation and color change”. Moreover, the degradation result in the series “Excipient compatibility” (setting [7]) is given as “about 5%”; in the series “Excipient compatibility” (setting [8]) it was “higher degradation”; in the series “Excipient compatibility” (setting [9]) it was “high-severe degradation”; in [3] (methanol and ethanol), “complete degradation”; in series [3] (setting [10]), “severe degradation”; in [5] (setting [11]), “about 4%”. Further, in series [2], the Hygroscopicity upon exposure entry is on record as “non-hygroscopic”. Also, the “Hygroscopicity by DVS” value in series [2] (DVS) is given as “non-hygroscopic”.
Take `C[N+](C)(C)CCOC(=O)CCCCC1CCSS1` (centres unmarked) [LACE-OBs, lipoic acid choline ester besylate]: the physical form result in “Solid state stability” (40° C. 75% RH for 1 week) was “become sticky”. The “solid state stability / physical form” value in “Solid state stability” (40° C. for 1 week) is listed as “stable”. Also, the photostability result in the series “Photostability” (amber vial) is listed as “stable”. Besides, the “photostability, physical form” value in “Photostability” (amber vial) was “remains the same”; in “Photostability” (clear vial), “decrease in crystallinity”. The “photostability, degradation” value in the series “Photostability” (clear vial) is “severe degradation and color change”. Also, the degradation result in series [3] (methanol and ethanol) was “complete degradation”; in series [3] (setting [10]) it was “severe degradation”; in series [5] (1 week) it was 10-99%; in series [5] (1 week, pH 4.7) it was “about 4%”; in series [6], less than 2%. Further, the Hygroscopicity upon exposure entry in series [1] (58% RH up to 6 hours) was “non hygroscopic”; in [2], “deliquescent”. Moreover, the “Hygroscopicity by DVS” value in [1] (DVS from 50% RH to 90% RH) is “deliquescent”. Further, the Hygroscopicity result in [2] is given as “hygroscopic”.
In the case of `C[N+](C)(C)CCOC(=O)CCCCC1CCSS1` (centres unmarked) [LACE-OTs, lipoic acid choline ester tosylate], the physical form result in “Solid state stability” (40° C. 75% RH for 1 week) is reported as “become sticky”. In “Solid state stability” (40° C. for 1 week), the “solid state stability / physical form” value was “stable”. Moreover, the “behaviour on handling / exposure” value in “Solid state stability” was “without any degradation”. The photostability entry in “Photostability” (amber vial) was “stable”. Further, the “photostability, physical form” value is reported as “remains the same” in the series “Photostability” (amber vial) and “some amorphous content” in “Photostability” (clear vial). Also, the “photostability, degradation” value in the series “Photostability” (clear vial) is “severe degradation and color change”. Also, the degradation result in series [3] (methanol and ethanol) is “complete degradation”; in [3] (setting [10]) it was “severe degradation”; in [6], less than 2%; in series [6] (5 %), 1-3%. In series [1] (up to 60% RH), the “moisture absorbed in DVS” value was “less than 2%”. In addition, the Hygroscopicity upon exposure result in series [2] is recorded as “non-hygroscopic”.
For “lipoic acid choline ester besylate [LACE-OBs]”, in the series “Solid state stability”, the “behaviour on handling / exposure” value is “without any degradation”.
